We go through 78 compounds from article PMC12040169 (PLOS Biology, 2025).

The nature of this data set: in vitro. The following applies: human, hela cells, % viability.

As for `N#C/C(=C/c1ccc(OCc2ccc(C(=O)O)cc2)cc1)C(=O)Nc1ccc(Cl)cc1` [CBK263187], the viability at 28.5 h, 10 µM worked out at 98.2%.
As for `Cc1cc(C)n(-c2ccc(N3CCC4(CC3)OCCO4)nn2)n1` [CBK305255], the figure is 97.8%.
As for `CCOc1cccc(-c2ccc(N(C)CCN(C)C)nc2)c1` [CBK036904], the figure is 94.8%.
For `CSc1nc2ccc(S(=O)(=O)NCCOc3ccc(Cl)cc3)cc2s1` [CBK268219], the viability at 28.5 h, 10 µM was determined as 81.9%.
On to `CC(C)(C)c1cc(C(=O)O)[nH]n1` [CBK260874], for which the viability at 28.5 h, 10 µM worked out at 103%.
With `CCc1ccc(C(=O)C(C)OC(=O)c2nc3nc(C)cc(C)n3n2)cc1` (stereo not drawn) [CBK305023], the viability at 28.5 h, 10 µM was found to be 87.7%.
As for `CSCC[C@H](NC(=O)c1cccc2c1-c1ccccc1C2=O)C(=O)O` [CBK286781], the figure is 95.5%.
As for `COCCN1C(=O)C2(CC(=O)N(CCCN3C(=O)CCC3=O)C2=O)c2ccccc21` (stereo not drawn) [CBK075333], the figure is 117%; as for `COc1ccc(C)cc1S(=O)(=O)n1ccc2c(CNC3CC(C)(C)NC(C)(C)C3)cccc21` [CBK113311T], 83.1%; as for `O=C(NC(c1ccc(Cl)cc1)c1cnccn1)C1CCN(C(=O)N2CCOCC2)CC1` (stereo not drawn) [CBK059635], 96.7%.
As for `C=CCN1C(=O)CC2(C1=O)C(=O)N(CC)c1ccc(F)cc12` (stereo not drawn) [CBK075316], the figure is 115%; as for `CCSc1ccccc1-c1nc2c(=O)n(C)c(-c3ccc(CN4CCCC4)cc3)cc2o1` [CBK200426T], 77.9%.
On to `COc1ccccc1-c1cnn2c(NCC3CCCO3)cc(C)nc12` (stereo not drawn) [CBK304529], for which the viability at 28.5 h, 10 µM was 84.5%.
As for `NC(=O)C1(Cc2ccc(-c3ccccc3)cc2)CCN(C(=O)COc2ccccc2)CC1` [CBK285773], the figure is 95.9%; as for `CCOC(=O)c1ccc(NC(=S)NC(=O)c2ccc(C)c(C)c2)cc1` [CBK264004], 89.2%; as for `CC(C)(C)OC(=O)N(c1cncc(N2CCNCC2)n1)[C@@H]1CCOc2ccccc21` [CBK172251G], 109%.
On to `O=C1COc2ccccc2C/C=C/CC2(CCCN(C(=O)CN3CSCC3=O)C2)CN1` (stereo not drawn) [CBK292035], for which the viability at 28.5 h, 10 µM stood at 116%.
`COc1ccc(C(=O)Nc2nc(OCC(F)(F)F)cnc2/C=C\c2ccccc2)c(OC)c1` [CBK145367]: the viability at 28.5 h, 10 µM came out at 104%.
As to `COc1cc(Nc2cncc(-c3cccnc3)n2)cc(OC)c1OC` [CBK065201], the viability at 28.5 h, 10 µM was 93.7%.
With `COc1ccc(CCN2C(=O)/C(=C\c3c(NCCO)nc4c(C)cccn4c3=O)SC2=S)cc1` [CBK265566], the viability at 28.5 h, 10 µM is 79.9%.
As for `Cc1csc([C@H]2Cc3ccsc3[C@@H](C3CCOC3)N2)n1` (stereo partly drawn) [CBK285089], the figure is 102%; as for `Cc1c(C(=O)O)sc(S(=O)(=O)N2CCN(C(=O)c3ccc(Cl)cc3)CC2)c1C(=O)O` [CBK297123], 96.9%; as for `Nc1nc2cc3c(cc2[nH]1)OCO3` [CBK023191], 96.6%.
Take `COc1ccc(S(=O)(=O)NCCO)cc1-c1nnc2c3ccccc3c(C)nn12` [CBK266933]: the viability at 28.5 h, 10 µM was 91.9%.
As for `c1ccc2nc(N3CCCC3)c(OC3CCNC3)nc2c1` (stereo not drawn) [CBK115288], the figure is 99.9%; as for `COC(=O)[C@@H]1Cc2ncn(C(C)C)c2CN1C(=O)C1CCCCC1` [CBK288989], 98.9%.
As for `Cc1nc(C)n(CC2CCCN(Cc3cn4ccccc4n3)C2)n1` (stereo not drawn) [CBK304028], the figure is 88.3%.
As for `Cc1ccc(S(=O)(=O)NC(C)C(=O)Nc2cc(-c3nc4ccccc4[nH]3)ccc2C)cc1` (stereo not drawn) [CBK110320], the figure is 96.2%; as for `COc1cc(C(=O)N2CCCC3(CCN(C(=O)c4cc(F)c(F)cc4F)C3)C2)cc(OC)c1OC` (stereo not drawn) [CBK131563], 106%.
For the compound `c1ccc(CSc2nnc(-c3ccco3)o2)cc1` [CBK026283], the viability at 28.5 h, 10 µM stood at 106%.
Take `CC1=NN(c2ccc(S(N)(=O)=O)cc2)C(=O)/C1=C\c1ccc(-c2cccc(C(=O)O)c2)o1` [CBK263483]: the viability at 28.5 h, 10 µM is 98%.
As for `CCOC(=O)CNS(=O)(=O)Cc1ccccc1[N+](=O)[O-]` [CBK034439], the figure is 95.3%; as for `CN(C)CCN(C)c1nc(-c2ccccc2F)cn2ccnc12` [CBK037406], 99.8%; as for `Cc1cccc(C)c1NC(=O)CSc1nnc(-c2cccnc2)n1Cc1ccccc1` [CBK265620], 114%.
As for `Cc1cc(=O)oc2cc(Sc3ccc([N+](=O)[O-])cc3)ccc12` [CBK002954], the figure is 95.7%; as for `CSCCCNC(=O)N1CCN(C2CCN(C)CC2)CC1` [CBK155882], 101%.
As for `Cc1nc2cc(/N=C/c3c[nH]c4ccccc34)ccc2n1C` [CBK262085], the figure is 88.8%.
For the compound `COC(=O)c1ccc(N2CCN(Cc3cnoc3C)C(C)C2)cc1` (stereo not drawn) [CBK306442], the viability at 28.5 h, 10 µM was 109%.
Turning to `O=C(O)CCC(CCC(=O)O)([N+](=O)[O-])[N+](=O)[O-]` [CBK260956], the viability at 28.5 h, 10 µM is 93.9%.
In the case of `CC(=O)Nc1nonc1OCCOc1nonc1NC(C)=O` [CBK020227], the viability at 28.5 h, 10 µM came to 113%.
As for `CC(=O)Nc1ccc(N/C=C(/C#N)c2nc(-c3ccc([N+](=O)[O-])cc3)cs2)cc1` [CBK262377], the figure is 106%.
With `CC(C)(C)c1ccc(-c2cnc3ncccc3c2O)cc1` [CBK089628], the viability at 28.5 h, 10 µM is 84.3%.
Turning to `O=C(O)CCSc1nc2ccccc2n1-c1ccccc1` [CBK264215], the viability at 28.5 h, 10 µM was 100%.
For `COc1ccccc1-c1nccnc1OC` [CBK106811], the viability at 28.5 h, 10 µM is 93.7%.
Take `O=C(O)CCC(=O)NCC1OCCc2ccccc21` (stereo not drawn) [CBK265865]: the viability at 28.5 h, 10 µM stood at 89%.
Take `CC(C)(CNC(=O)CN1CCOCC1)NC(=O)OC(C)(C)C` [CBK089350]: the viability at 28.5 h, 10 µM worked out at 88.7%.
`c1csc(CNc2nc3ccccc3n2CCN2CCOCC2)c1` [CBK262462]: the viability at 28.5 h, 10 µM amounted to 109%.
As for `Cn1c(O)c(CCNc2cc([C@H]3C[C@@H](O)C3)nc(N)n2)cnc1=O` [CBK306956], the viability at 28.5 h, 10 µM came to 104%.
On to `CCCc1nn(CC(=O)NC(C)(C)C)c(=O)c2cc3ccsc3n12` [CBK284148], for which the viability at 28.5 h, 10 µM was found to be 83.7%.
As for `COc1ccc(-c2nc(NC3CCCCC3)c3ccccc3n2)cc1` [CBK058109], the figure is 95.6%; as for `Cc1nnc2sc(-c3ccc(NC(=O)CSc4ccc(Cl)cc4)cc3)nn12` [CBK266800], 108%.
In the case of `COc1ccccc1CNC(=O)c1ccc2nc(C)c(N(C)C(=O)c3cccs3)n2c1` [CBK146546], the viability at 28.5 h, 10 µM is 86.9%.
As for `CC(C)(O)c1cc(CC2(NCC3CCCCC3)COC2)no1` [CBK289656], the figure is 89.7%.
As for `Cc1ccc2[nH]c(=O)c(CN(Cc3ccccc3)C(=O)NC3CCCCC3)cc2c1` [CBK068704], the figure is 84.5%.
Turning to `Cc1ccccc1C1NS(=O)(=O)NC1=N` (stereo not drawn) [CBK263852], the viability at 28.5 h, 10 µM worked out at 96.5%.
As for `O=C(Nc1cccc2[nH]ccc12)c1ccoc1` [CBK159659], the figure is 94.8%.
Consider `Cn1c(=O)n(C)c2cc(CNCc3cccnc3)ccc21` [CBK268432C], for which the viability at 28.5 h, 10 µM was 99.1%.
As for `O=C(O)/C=C\c1cn(-c2ccccc2)nc1-c1cc2ccccc2o1` [CBK265257], the figure is 92.7%.
In the case of `Cc1[nH]ncc1C(=O)N1CCn2cc(C(F)(F)F)nc2C1` [CBK282307], the viability at 28.5 h, 10 µM stood at 87.7%.
In the case of `CC(C)Nc1nccnc1OCCN1CCOCC1` [CBK113410], the viability at 28.5 h, 10 µM was 104%.
Take `CN(C(=O)C1CCN(Cc2cccc(C(F)(F)F)c2)CC1)C(c1ccc(F)cc1)c1ccccn1` (stereo not drawn) [CBK148409]: the viability at 28.5 h, 10 µM was 95.7%.
Regarding `Cc1ccccc1Nc1nc(-c2ccc([N+](=O)[O-])cc2)nc2ccccc12` [CBK264803], the viability at 28.5 h, 10 µM worked out at 119%.
On to `Cc1cccc(Cc2cccc(C3CCCN(S(=O)(=O)c4cn(C)nc4C)C3)n2)c1` (stereo not drawn) [CBK286131], for which the viability at 28.5 h, 10 µM came out at 101%.
`O=S(=O)(NCCn1c(-c2ccncc2)nc2ccccc21)c1ccccc1` [CBK288578]: the viability at 28.5 h, 10 µM stood at 87.2%.
As for `O=C(Nc1ccccc1-n1cccc1)C1Cc2c([nH]c3ccccc23)C2(CCN(Cc3ccccc3)C2)N1` (stereo not drawn) [CBK059395], the figure is 95.9%.
Consider `O=C(CSc1nnc(-c2ccccn2)[nH]1)NC1CC2CCC1C2` (stereo not drawn) [CBK269994], for which the viability at 28.5 h, 10 µM was determined as 83%.
`CN(C)C(=O)c1cccc(-c2cnc3[nH]c(=O)n(Cc4ccc(Cl)cc4)c3n2)c1` [CBK064553]: the viability at 28.5 h, 10 µM came to 97.5%.
As for `O=C(Cc1c(Cl)cccc1Cl)Nc1ccc2[nH]ccc2c1` [CBK159664], the figure is 113%; as for `COc1cc(-c2nccnc2NCc2ccco2)cc(OC)c1OC` [CBK037072], 111%; as for `Cc1nnc(Sc2nc(CN3CCOCC3)nc3scc(-c4cccs4)c23)n1C` [CBK297092], 103%.
As for `CC(C)(N)CNC(=O)c1cc(-c2ccc(Cl)cc2)[nH]n1` [CBK116554], the figure is 91.5%; as for `CCOC(=O)C1CCN(S(=O)(=O)c2ccccc2C#N)CC1` [CBK051111], 93.6%.
As for `O=C(CN1C(=O)/C(=C/c2ccccc2)SC1=S)Nc1cccc(C(=O)O)c1` [CBK262171], the figure is 86.9%; as for `O=C1NC2(CCCN(C(=O)c3ccco3)C2)Oc2ccccc21` (stereo not drawn) [CBK284800], 99.8%.
Regarding `Cc1nc2ccccc2c2c1C(=O)N(c1cccc(C(=O)OCC(=O)c3ccccc3Cl)c1)C2=O` [CBK265505], the viability at 28.5 h, 10 µM was 98.5%.
As for `COc1ccc2c(c1)C1(CC(=O)N(Cc3ccccc3)C1=O)C(=O)N2CCCN1C(=O)c2ccccc2C1=O` (stereo not drawn) [CBK075501], the figure is 93.4%.
As for `CCn1cc(-c2cncn2CC(C)N2CCCCC2)cn1` (stereo not drawn) [CBK281556], the figure is 103%; as for `Cc1nc2c(c(N3CCN(c4ccc(O)cc4)CC3)n1)CN(Cc1ccccc1)CC2` [CBK286177], 90.2%.
